Results taken from patent US11925656B2, “Biological total joint replacement” (priority 2014, dated 2024).
“Also recorded” adds a separate entry of the source.

Columns and labels:
lubricin [1] = assay: Lubricin in synovium by ELISA, rabbit arthritis model; format: in vivo; settings: prophylactic groups, oral days 1-42, vs control
From the text: (§1) The study was approved by the Institutional Animal Care and Use Committee (IACUC) of Thomas D. Morris, Inc. 28 New Zeeland White rabbits were selected for the study. Six such were randomly assigned to one of four groups; prophylactic cyanidin-3-glycoside (C3G)(referred to figures as Cl 1-42), prophylactic protocatechuic acid (PCA)(referred to in figures as PCA 1-42), therapeutic C3G (referred to in figures as Cl 42-70), and therapeutic PCA (referred to in figures as PCA 42-70). There were four controls, two each to the prophylactic and therapeutic groups.
(§2) The prophylactic groups were given PROC3G™ by Chromadex™ at a dose of 30 mg/kg of body weight of either C3G or PCA by mouth, 7 times per week for 42 days. The therapeutic groups' treatment was initiated on day 42 with a daily dose of PROC3G™ by Chromadex™ 7 times per week for 4 weeks. The dose of 30 mg of cyanidin-3-glucoside per kg of body weight calculates to be 0.177 millimoles per kg body weight. The dose of PCA was the same in terms of millimoles per kg body weight.
(§3) The experimental rabbits underwent surgery with an intent to create a severe degenerative arthritis by cutting the medial collateral ligament, the anterior cruciate ligament and removing the medial meniscus. A partial thickness laceration was made longitudinally on the lateral femoral condyle for future assessment of potential for repair. The surgery was performed by two licensed veterinarians. One surgeon was very experienced. The other surgeon was a recent graduate.
(§4) At necropsy, the synovial fluid was harvested percutaneously and upon arthrotomy. The synovium was harvested from posterior compartment. The patella and adjacent synovium was procured as a separate specimen as was the medial and lateral condyle.
(§5) The synovial fluid and half of the synovium was frozen and sent to BioBoston Laboratory for chemical analysis. The other half of the synovium and bone was sent to McClinchery Histology in Stockbridge, Mich. for histological preparation and staining. […]
(§6) Synovial Tissue (Synovium)—Detected by ELISA

IGF-1 = IGF-1 in plasma, rabbit arthritis model; format: in vivo; settings: for IGF-1 in the plasma: control group 25 PG/ML
From the text: as §1, §2, §3
Blood testing was performed prior to necropsy on C3G, PCA, glucose, MMP-3 and IGF-1 to assess any systemic effects.

MMP3 = MMP3 in synovial fluid by ELISA, rabbit arthritis model; format: in vivo; settings: therapeutic groups, oral days 42-70, vs control
From the text: as §1
(§7) The prophylactic groups were given PROC3G™ by Chromadex™ at a dose of 30 mg/kg of body weight of either C3G or PCA by mouth, 7 times per week for 42 days. The therapeutic groups' treatment was initiated on day 42 with a daily dose of PROC3G™ by Chromadex™ 7 times per week for 4 weeks. The dose of 30 mg of cyanidin-3-glucoside per kg of body weight calculates to be 0.177 millimoles per kg body weight. The dose of PCA was the same in terms of millimoles per kg body weight. […]
MMP3 is known as matrix metallopeptidase 3, or stromelysin 1 or progelatinase. […] See FIG. 2C. • Synovial Tissue (Synovium)—Detected by ELISA • MMP-3 levels were reduced in all four groups. See FIG. 9B. • Synovial Tissue (Synovium)—Gene Expression Level Detected by Real-Time PCR • MMP-3 gene expression was decreased in all groups. […]

human synovial explants = settings: PCA directly applied; cited from earlier work
ADAMTS-5 = ADAMTS-5 in synovial fluid by ELISA, rabbit arthritis model; format: in vivo; settings: therapeutic groups, oral days 42-70, vs control
From the text: as §1, §2, §3, §4, §5
(§8) Synovial Fluid—Detected by ELISA

C-reactive protein (CRP) = C-reactive protein (CRP) in plasma after knee surgery; format: in vivo, rabbit
Procedure: C-reactive protein (CRP) is a protein found in the blood plasma, the levels of which rise in response to inflammation (i.e., C-reactive protein is an acute-phase protein). Its physiological role is to bind to phosphocholine expressed on the surface of dead or dying cells (and some types of bacteria) in order to activate the complement system via the C1Q complex. CRP rises within two hours of the onset of inflammation, up to a 50,000-fold, and peaks at 48 hours. […] CRP is thus a screen for inflammation.
Knee surgery was performed to create a severe irreparable degenerative knee joint, which in turn elevated the CRP in the plasma to average of […]. A historical normal amount of CRP is 3.15 micrograms/mL. See Sun H, et al., Am J Pathol. October 2005; 167(4): 1139-1148. Rabbit CRP levels are close to the mean values of healthy middle-aged humans (2.82 mg/L) reported in the literature. See Ockene I S, et al., Clin Chem. 2001; 47:444-450.
The controls in the study were animals that had surgery and received no treatment. The prophylaxis test groups had the surgery and received 6 weeks of oral C-3-G or PCA 7 times per week as described in example 1. The therapeutic treatment group had surgery, received no treatment for 41 days and then at day 42 received oral C-3-G or PCA 7 times per week as described in example 1.

MMP-13 = MMP-13 in synovium by ELISA, rabbit surgically induced knee arthritis; format: in vivo; settings: vs untreated control, not statistically significant
From the text: as §1, §2, §3, §4
(§9) The synovial fluid and half of the synovium was frozen and sent to BioBoston Laboratory for chemical analysis. The other half of the synovium and bone was sent to McClinchery Histology in Stockbridge, Mich. for histological preparation and staining. Patellar slides were sent to BioBoston Contract Laboratories for histochemical staining and ICRS grading. Sample slides were examined for Lubricin at Myron Spector laboratory.
as §6

[2] = system: catabolic cytokine environment; assay: Cytokine environment in surgically created arthritic knee; format: in vivo; settings: rabbits, either oral or intraarticular route
aggrecan = assay: Aggrecan expression in patellar cartilage, rabbit arthritis model; format: in vivo; settings: prophylactic, minimum of 30 mg/kilo gram body weight by oral route, compared to the controls
From the text: as §1, §2
as §3, with “The surgery was performed by two licensed veterinarians. One surgeon was very experienced. The other surgeon was a recent graduate.” left out

TNF-alpha = TNF-alpha in synovial fluid by ELISA, rabbit arthritis model; format: in vivo; settings: therapeutic groups, oral 4 weeks, vs control; not statistically significant
From the text: as §1, §2
(§10) The experimental rabbits underwent surgery with an intent to create a severe degenerative arthritis by cutting the medial collateral ligament, the anterior cruciate ligament and removing the medial meniscus. […]
as §8

[3] = system: patellar articular cartilage; assay: ICRS histological visual scale scoring of patellar cartilage, rabbit arthritis model; format: in vivo; settings: prophylactic, minimum of 30 mg/kilo gram body weight by oral route
From the text: International Cartilage Repair Society (ICRS) criteria are described for example in Hoemann, et al., (cited on Applicant's IDS), herein incorporated by reference.
as §1, §2, §10

ADAMTS-5 gene expression = ADAMTS-5 gene expression in synovium by real-time PCR, rabbit arthritis model; format: in vivo; settings: therapeutic groups, oral days 42-70, vs control
From the text: as §1, §2, §10
Synovial Tissue (Synovium)—Gene Expression Level Detected by Real-Time PCR

IL-1 beta = IL-1 beta in synovium by ELISA, rabbit arthritis model; format: in vivo; settings: therapeutic groups, oral days 42-70, vs control
From the text: as §1, §7
Interleukin-1 beta (IL-1p) also known as catabolic, is a cytokine protein. […] Increased production of IL-1B causes a number of different auto-inflammatory syndromes. • Synovial Fluid—Detected by ELISA • Levels of IL-1 beta were decreased in all groups. See FIG. 2A. • Synovial Tissue (Synovium)—Detected by ELISA

[4] = system: human mesenchymal stem cells; settings: in vitro, dose related; cited from earlier work
MRSA and Pseudomonas = settings: tape-stripped rodent backs contaminated with MRSA and Pseudomonas; cited from earlier work
human osteoblasts = settings: in vitro, dose related; cited from earlier work
lymphocytes = assay: Number of lymphocytes in synovial fluid, rabbit arthritis model; format: in vivo
From the text: as §1, §2, §3, §4
In addition to testing for the increase or decrease of various factors and cytokines, tests were run to count the number of white blood cells, including polymorphonuclear leukocytes (PMN), macrophages (Mac) and lymphocytes (Lym). […]

[5] = more powerful than vitamin E; cited from earlier work
IGF-1 gene expression = IGF-1 gene expression in synovium by real-time PCR, rabbit arthritis model; format: in vivo; settings: rabbits, either oral or intraarticular route
From the text: as §1, §7
See FIG. 5B. • Synovial Tissue (Synovium)-Detected by ELISA • IGF-1 was increased in all groups. See FIG. 8B. • Synovial Tissue (Synovium)-Gene Expression Level Detected by Real-Time PCR • IGF-1 was increased in all groups.

[6] = human; cited from earlier work
lubricin [7] = assay: Lubricin expression in cartilage, immunohistochemical staining, rabbit arthritis model; format: in vivo; settings: prophylactic, minimum of 30 mg/kilo gram body weight by oral route, compared to the controls
From the text: as §1, §2
as §3, with “The surgery was performed by two licensed veterinarians. One surgeon was very experienced. The other surgeon was a recent graduate.” left out

MMP-3 = MMP-3 expression in cartilage, histochemical staining and scoring, rabbit arthritis model; format: in vivo
From the text: as §1, §2, §3, §4, §9
MMP3 is known as matrix metallopeptidase 3, or stromelysin 1 or progelatinase. Proteins of the matrix metalloproteinase (MMP) family are involved in the breakdown of 20 extracellular matrix in normal physiological processes, such as embryonic development, reproduction, and tissue remodeling, as well as in disease processes, such as arthritis and metastasis. […] See FIG. 2C. • Synovial Tissue (Synovium)—Detected by ELISA • MMP-3 levels were reduced in all four groups. See FIG. 9B. • Synovial Tissue (Synovium)—Gene Expression Level Detected by Real-Time PCR • MMP-3 gene expression was decreased in all groups. See FIG. 13A. • Histochemical Scoring Analysis

collagen II = assay: Collagen II expression in cartilage, immunohistochemical staining, rabbit arthritis model; format: in vivo; settings: prophylactic, minimum of 30 mg/kilo gram body weight by oral route, compared to the controls
From the text: as §1, §2
as §3, with “The surgery was performed by two licensed veterinarians. One surgeon was very experienced. The other surgeon was a recent graduate.” left out

[8] = prophylactic groups, oral days 1-42
[9] = therapeutic groups, oral days 42-70
[10] = prophylactic groups, oral days 1-42, vs control
[11] = therapeutic groups, oral days 42-70, vs control

For `O=C(O)c1ccc(O)c(O)c1` [PCA, Protocatechuic acid (3,4-dihydroxybenzoic acid)], the lubricin in synovium (lubricin [1]) was “increased”, the “IGF-1 in the plasma, change vs control” value (IGF-1; prophylactic group, oral days 1-42, only group with an increase) was “increased” and the “IGF-1 in the plasma” value (IGF-1; [8]) was 43.0 pg/mL. For the same compound, the “IGF-1 in the plasma” value (IGF-1; [9]) was 29.0 pg/mL, the “MMP3 in synovial fluid” value (MMP3) was “decreased” and the “IGF-1 in human synovial explants” value (human synovial explants) was “increased”. The “ADAMTS-5 in synovial fluid” value (ADAMTS-5) was “decreased”, the “CRP, an indicator of inflammation” value (C-reactive protein (CRP); given by oral route immediately after injury) was “kept to normal levels” and the “plasma CRP level” value (C-reactive protein (CRP); prophylaxis test group, 6 weeks oral treatment from surgery, untreated control at 42 days 8.8 mg/mL) was 3.6 micrograms/mL. For the same compound, the “plasma CRP level” value (C-reactive protein (CRP); therapeutic group, no treatment for 6 weeks after surgery, then 4 weeks oral treatment) was 43 mg/mL, the “MMP-13 levels in synovium” value (MMP-13; prophylactic groups, oral 7 times per week days 1-42 (C3G 30 mg/kg, PCA 26.4 mg/kg)) was “very slightly decreased” and the “MMP-13 levels in synovium” value (MMP-13; therapeutic groups, oral 7 times per week days 42-70 (C3G 30 mg/kg, PCA 26.4 mg/kg)) was “increased slightly”. For the same compound, the “catabolic cytokine environment in a surgically created arthritic knee” value [2] was “reversing”, the “aggrecan in articular cartilage ECM” value (aggrecan) was “increased” and the “TNF-alpha levels in synovial fluid” value (TNF-alpha) was “slight increase”. The articular cartilage cells ([3]; compared to the controls) was “unchanged in nature and spacing”, the subchondral bone structure ([3]; without sclerosis or osteophyte formation) was “remained normal in structure” and the “ADAMTS-5 gene expression in synovium” value (ADAMTS-5 gene expression) was “decreased”. For the same compound, the “levels of IL-1 beta in synovium” value (IL-1 beta) was “decreased”, the “bone making markers in human mesenchymal stem cells” value [4] was “produce bone making markers” and the “collagen layer in the dermis” value (MRSA and Pseudomonas) was “production of collagen layer in the dermis”. For the same compound, the “re-epithelialization of the skin wound” value (MRSA and Pseudomonas) was “re-epithelialization of the wound”, the “time to disinfect the wound” value (MRSA and Pseudomonas) was 2 days and the “bone making markers in human osteoblasts” value (human osteoblasts) was “produce bone making markers”. For the same compound, the “number of lymphocytes in synovial fluid” value (lymphocytes; [10]) was “decreased”, the “number of lymphocytes in synovial fluid” value (lymphocytes; [11]) was “decreased” and the “antioxidant power relative to vitamin E” value [5] was 10 ×. For the same compound, the “IGF-1 genetic expression in the synovium” value (IGF-1 gene expression) was “increase”, the toxicity [6] was “non-toxic; also recorded: no known human toxic effects” and the “lubricin on the articular cartilage surface” value (lubricin [7]) was “increased”. The “histochemical staining for the presence of MMP-3 in cartilage” value (MMP-3; [8]) was “no staining”, the “MMP-3 expression in cartilage” value (MMP-3; [10]) was “reduced” and the “histochemical staining for the presence of MMP-3 in cartilage” value (MMP-3; [9]) was “no staining”. For the same compound, the “MMP-3 expression in cartilage” value (MMP-3; [11]) was “reduced” and the “type II collagen in articular cartilage ECM” value (collagen II) was “increased”.
